“Also recorded” adds a separate entry of the source. Read-outs that look alike come from different tables or passages of the source. Positions of bridges follow the written chain, without caps; N, C: chain ends. Non-standard residues stand in square brackets, D forms with d. Residues, ends and D or L forms follow the SMILES beside them. *: point of attachment. Biotin = O=C1N[C@H]2[C@H](CS[C@H]2CCCCC(=O)*)N1
Key:
[1] = Serum stability study in normal mouse serum, analysis by MALDI-TOF MS; conditions: for overall serum stability (in words): MALDI-TOF MS
Method: The peptide of interest (30 μL of 10 mg/mL stock solution in dH2O) was added to normal mouse serum (300 μL) and incubated at 37° C. in an incubator. At each time point, an aliquot of 40 μL was drawn and an equal volume of ACN was added to the aliquot to precipitate serum proteins. The cloudy mixture was centrifuged at 10,000 rpm for 5 min and then supernatant removed. A solution of 1:1 H2O/ACN (80 μL) was added to the pellet and sonicated for 10 min to further extract the remaining peptides. This resuspended mixture was then centrifuged, and the supernatant was pooled with the former and vacuum-dried on a Speedvac machine. The dried pellet was solubilized in H2O (50 μL) by sonication for 10 min. The mixture was then centrifuged, and the supernatant was drawn and analyzed by MALDI-TOF MS.
To evaluate serum stability of M2pep, the peptide was incubated in mouse serum, and aliquots of the serum at various time points were withdrawn for analysis of degradation patterns by MALDI-TOF MS.
Different M2pep analogs (30 μL from 10 mg/mL stock solution in H2O) were incubated in normal mouse serum (300 μL) at 37° C. in an incubator. An aliquot of the serum (40 μL) was drawn at different time intervals and precipitated with an equal volume of cold ACN. The mixture was centrifuged at 15,000 rpm for 5 min, and the supernatant was collected. A solution of H2O/ACN (1:1 v/v, 80 μL) was added to the pellet with a 10-min sonication to further extract residual peptides. The mixture was then centrifuged. The supernatant was pooled with the former and dried under vacuum on a Speedvac machine. The peptide pellet was resuspended in H2O (50 μL) with a 10-min sonication before analysis by MALDI-ToF MS.

[2] = system: M2 macrophages; assay: Binding study of biotinylated peptides on polarized bone marrow-derived macrophages (streptavidin-FITC, flow cytometry); type: cell-based, mouse; conditions: for Kd: M2 macrophages, half-maximal MFI, read-out: apparent dissociation constant (KD); for binding activity to M2 macrophages (in words): biotinylated peptide, on ice 20 min
Method: All animal handling protocols were approved by the University of Washington Institutional Animal Care and Use Committee. Bone marrow harvest was performed following the previously reported protocol. Briefly, femur and tibia were excised from 6-8 week-old female c57bl6/027 mice. Cuts were made on the ends of each bone, and RPMI 1640 medium was used to flush out bone marrow cells via 18G needle. The cells were cultured on petri dishes in RPMI 1640 medium supplemented with 20% donor horse serum, 1% antibiotic-antimycotic (AbAm), and 20 ng/mL M-CSF. After 7 d of culture, macrophages were activated by replacing M-CSF with 25 ng/mL IFN-γ and 100 ng/mL LPS for M1 macrophage or 25 ng/mL IL-4 for M2 macrophage. The macrophages were activated for 2 d and then scraped off the petri dishes with cell lifter for binding studies.
(§1) Peptide solutions at different concentrations for binding study were prepared by dilutions from the stock solution (10 mg/mL in dH2O) with PBS containing 1% BSA (PBSA). M1 and M2 macrophages (50,000 cells/well) were seeded on a black 96-well plate and incubated in the peptide solutions on ice for 20 min. Unbound peptides were washed off with PBSA twice. The macrophages were subsequently incubated with streptavidin-FITC for 15 min on ice to probe for the bound peptides. Excess streptavidin-FITC was washed off with PBSA twice, and the macrophages were then resuspended in PBS for analysis by MACSQuant Flow Cytometer (Miltenyi Biotec, San Diego, Calif.). Propidium iodide was added to the samples before the data acquisition to discriminate dead cells. Flow cytometry data were analyzed with FlowJo Analysis Software (Tree Star, Ashland, Oreg.). Binding study of peptides post serum incubation was similarly performed with the following additions: The peptides (5 mM stock solution in H2O) were diluted in serum to a final concentration of 0.5 mM and incubated at 37° C. in an incubator. At each time point, an aliquot of the peptides was drawn and diluted in PBS to the final concentration for the binding study. The diluted aliquot was heated at 80° C. for 30 min to inactivate serum proteins, stored in a −20° C. freezer, and thawed for use in the binding study after aliquots at all time points were collected.
All animal handling protocols were approved by the University of Washington Institutional Animal Care and Use Committee. Bone marrow-derived cells were harvested from female c57bl/6 mice as previously described. In brief, femurs and tibias of the mice were excised and flushed with RPMI 1640 medium via an 18G needle. The cells were cultured on petri dishes containing RPMI 1640 medium supplemented with 20% donor horse serum, 1% antibioticantimycotic (AbAm), and 20 ng/mL M-CSF. After 7 d in culture, the medium was replaced with an activation medium whereby M-CSF was replaced with 25 ng/mL IFN-γ and 100 ng/mL LPS for M1 activation or with 25 ng/mL IL-4 for M2 activation. For M1 activation medium, AbAm was replaced with 1% penicillin-streptomycin (Pen-Strep). After 2 d of activation, the activated macrophages were scraped off the petri dishes for binding studies.
Biotinylated peptide stock solutions were prepared in H2O at 10 mg/mL concentration and quantified for the exact concentration using Quant*Tag Biotin quantification kit. The stock solutions were diluted in PBS with 1% BSA (PBSA) to different concentrations for binding studies. Activated macrophages were seeded on a black 96-well plate (50,000 cells/well) and incubated with the peptide solutions for 20 min on ice. The cells were washed twice with PBSA and subsequently incubated with streptavidin-FITC for 15 min on ice. After two additional washes, the cells were resuspended in PBS for analysis via MACSQuant Flow Cytometer (Miltenyi Biotec, San Diego, Calif.). Propidium iodide (PI) was added before running each sample to assess for cell viability. Data analysis was processed on FlowJo Analysis Software (Tree Star, Ashland, Oreg.). […]

[3] = system: M2 macrophages; assay: Binding of M2pep analogs post serum incubation; type: cell-based, mouse; conditions: for decline in binding activity with serum pre-incubation: 150 μM of M2pepBiotin, 50 μM of AcM2pep(RY)Biotin and cyclic M2pep(RY)Biotin, mouse serum 37° C.
Method: as §1
For TAM targeting applications, M2pep analogs will be exposed to serum during systemic circulation. Therefore, we next studied how the serum stability of M2pep analogs affects subsequent binding to target cells. Peptides were incubated with mouse serum at 37° C. to mimic peptidase exposure in systemic circulation, and aliquots of the serum were withdrawn at various time points for binding studies with polarized macrophages. In general, binding activity of the M2pep analogs corresponded with the peptides' serum stability (FIG. 6). […]

[4] = Solubility of cyclized peptide analogs

CC(C)[C@H](NC(=O)CNC(=O)[C@H](Cc1c[nH]c2ccccc12)NC(=O)[C@@H]1CCCN1C(=O)[C@H](CC(=O)O)NC(=O)[C@H](CCC(N)=O)NC(=O)[C@H](CCC(=O)O)NC(=O)[C@@H](N)Cc1ccc(O)cc1)C(=O)N[C@@H](CCCCN)C(=O)N[C@@H](Cc1c[nH]c2ccccc12)C(=O)N[C@@H](Cc1c[nH]c2ccccc12)C(=O)N[C@@H](Cc1ccc(O)cc1)C(=O)NCC(=O)NCC(=O)NCC(=O)N[C@@H](CO)C(=O)N[C@@H](CCCCN)C(=O)N[C@@H](CCCCN)C(=O)N[C@@H](CCCCNC(=O)CCCC[C@@H]1SC[C@@H]2NC(=O)N[C@@H]21)C(N)=O [M2pepBiotin, YEQDPWGVKWWYGGGSKK]
overall serum stability (in words) ([1]; mouse serum, 37° C.): Poor serum stability | Kd [2]: 220 µM | decline in binding activity with serum pre-incubation [3]: fastest and greatest decline in binding activity

CC(=O)N[C@@H](Cc1ccc(O)cc1)C(=O)N[C@@H](CCC(=O)O)C(=O)N[C@@H](CCC(N)=O)C(=O)N[C@@H](CC(=O)O)C(=O)N1CCC[C@H]1C(=O)N[C@@H](Cc1c[nH]c2ccccc12)C(=O)NCC(=O)N[C@H](C(=O)N[C@@H](CCCCN)C(=O)N[C@H](Cc1c[nH]c2ccccc12)C(=O)N[C@@H](Cc1c[nH]c2ccccc12)C(=O)N[C@@H](Cc1ccc(O)cc1)C(=O)NCC(=O)NCC(=O)NCC(=O)N[C@@H](CO)C(=O)N[C@@H](CCCCN)C(=O)N[C@@H](CCCCN)C(=O)N[C@@H](CCCCN)C(=O)N[C@@H](CCCCNC(=O)CCCC[C@@H]1SC[C@@H]2NC(=O)N[C@@H]21)C(N)=O)C(C)C [W10w, Ac-YEQDPWGVKwWYGGGSKKK]
serum stability at the W10/W11 endolytic cleavage site ([1]; mouse serum): effective protection against endolytic cleavage at the W10/W11 site | binding activity to M2 macrophages (in words) [2]: abrogated binding activity

CC(=O)N[C@@H](Cc1ccc(O)cc1)C(=O)N[C@@H](CCC(=O)O)C(=O)N[C@@H](CCC(N)=O)C(=O)N[C@@H](CC(=O)O)C(=O)N1CCC[C@H]1C(=O)N[C@@H](Cc1c[nH]c2ccccc12)C(=O)NCC(=O)N[C@H](C(=O)N[C@@H](CCCNC(=N)N)C(=O)N[C@@H](Cc1c[nH]c2ccccc12)C(=O)N[C@@H](Cc1c[nH]c2ccccc12)C(=O)N[C@@H](Cc1ccc(O)cc1)C(=O)NCC(=O)NCC(=O)NCC(=O)N[C@@H](CO)C(=O)N[C@@H](CCCCN)C(=O)N[C@@H](CCCCN)C(=O)N[C@@H](CCCCN)C(=O)N[C@@H](CCCCNC(=O)CCCC[C@@H]1SC[C@@H]2NC(=O)N[C@@H]21)C(N)=O)C(C)C [K9R, Ac-YEQDPWGVRWWYGGGSKKK]
serum stability at the W10/W11 endolytic cleavage site ([1]; mouse serum): did not confer protection at the W10/W11 site | binding activity to M2 macrophages (in words) [2]: significantly increased binding activity

CC(C)[C@@H]1NC(=O)CNC(=O)[C@H](Cc2c[nH]c3ccccc23)NC(=O)[C@@H]2CCCN2C(=O)[C@H](CC(=O)O)NC(=O)[C@H](CCC(N)=O)NC(=O)[C@H](CCC(=O)O)NC(=O)[C@H](Cc2ccc(O)cc2)NC(=O)CNC(=O)[C@H](Cc2ccccc2)NC(=O)[C@H](Cc2ccccc2)NC(=O)[C@@H](N)CSSC[C@@H](C(=O)N[C@H](CCCCN)C(=O)N[C@H](CCCCN)C(=O)N[C@H](CCCCN)C(=O)N[C@@H](CCCCNC(=O)CCCC[C@@H]2SC[C@@H]3NC(=O)N[C@@H]32)C(N)=O)NC(=O)CNC(=O)[C@H](Cc2ccc(O)cc2)NC(=O)[C@H](Cc2c[nH]c3ccccc23)NC(=O)[C@H](Cc2ccc(O)cc2)NC(=O)[C@H](CCCNC(=N)N)NC1=O [FF-cyclized M2pep(RY)Biotin] (H-CFFGYEQDPWGVRYWYGC[dK][dK][dK]K(Biotin)-NH2; disulfide 1-18)
solubility (in words) [4]: significantly reduces solubility

CC(=O)N[C@@H](Cc1ccc(O)cc1)C(=O)N[C@@H](CCC(=O)O)C(=O)N[C@@H](CCC(N)=O)C(=O)N[C@@H](CC(=O)O)C(=O)N1CCC[C@H]1C(=O)N[C@@H](Cc1c[nH]c2ccccc12)C(=O)NCC(=O)N[C@H](C(=O)N[C@@H](CCCNC(=N)N)C(=O)N[C@@H](Cc1ccc(O)cc1)C(=O)N[C@@H](Cc1c[nH]c2ccccc12)C(=O)N[C@@H](Cc1ccc(O)cc1)C(=O)NCC(=O)NCC(=O)NCC(=O)N[C@@H](CO)C(=O)N[C@H](CCCCN)C(=O)N[C@H](CCCCN)C(=O)N[C@H](CCCCN)C(=O)N[C@@H](CCCCNC(=O)CCCC[C@@H]1SC[C@@H]2NC(=O)N[C@@H]21)C(N)=O)C(C)C [AcM2pep(RY)Biotin, Ac-YEQDPWGVRYWYGGGSkkk] (Ac-YEQDPWGVRYWYGGGS[dK][dK][dK]K(Biotin)-NH2)
serum stability at the W10/W11 endolytic cleavage site ([1]; mouse serum): did not improve serum stability at the W10/W11 site | binding activity to M2 macrophages (in words) [2]: did not improve the binding activity any further compared to the K9R analog; also recorded: highest affinity linear M2pep analog

CC(C)[C@@H]1NC(=O)CNC(=O)[C@H](Cc2c[nH]c3ccccc23)NC(=O)[C@@H]2CCCN2C(=O)[C@H](CC(=O)O)NC(=O)[C@H](CCC(N)=O)NC(=O)[C@H](CCC(=O)O)NC(=O)[C@H](Cc2ccc(O)cc2)NC(=O)CNC(=O)[C@@H](N)CSSC[C@@H](C(=O)N[C@H](CCCCN)C(=O)N[C@H](CCCCN)C(=O)N[C@H](CCCCN)C(=O)N[C@@H](CCCCNC(=O)CCCC[C@@H]2SC[C@@H]3NC(=O)N[C@@H]32)C(N)=O)NC(=O)CNC(=O)[C@H](Cc2ccc(O)cc2)NC(=O)[C@H](Cc2c[nH]c3ccccc23)NC(=O)[C@H](Cc2ccc(O)cc2)NC(=O)[C@H](CCCNC(=N)N)NC1=O [cyclic M2pep(RY)Biotin, CGYEQDPWGVRYWYGCkkk] (H-CGYEQDPWGVRYWYGC[dK][dK][dK]K(Biotin)-NH2; disulfide 1-16)
serum incubation time at which the peptide remained detectable by MALDI-TOF MS ([1]; mouse serum, 37° C.): ≥ 48 h | time without endolytic cleavage at the W10/W11 site ([1]; mouse serum, 37° C.): at least 8 h | overall serum stability (in words) ([1]; mouse serum, 37° C.): markedly improved serum stability over the linear AcM2pep(RY)Biotin | incubation in mouse serum after which the cyclized peptide was eventually degraded ([1]; prolonged incubation in mouse serum): more than 1 day | Kd ([2]; listed as disulfide-cyclized M2pep(RY)): 36.3 µM | binding activity to M2 macrophages (in words) [2]: comparable binding activity to the linear AcM2pep(RY)Biotin | decline in binding activity with serum pre-incubation [3]: least decline | binding activity after 24 h serum incubation ([3]; 24 h in mouse serum at 37° C.): retained the highest binding activity

CC(=O)N[C@@H](Cc1ccc(O)cc1)C(=O)N[C@@H](CCC(=O)O)C(=O)N[C@@H](CCC(N)=O)C(=O)N[C@@H](CC(=O)O)C(=O)N1CCC[C@H]1C(=O)N[C@@H](Cc1c[nH]c2ccccc12)C(=O)NCC(=O)N[C@H](C(=O)N[C@@H](CCCCN)C(=O)N1CCC[C@H]1C(=O)N[C@@H](Cc1c[nH]c2ccccc12)C(=O)N[C@@H](Cc1ccc(O)cc1)C(=O)NCC(=O)NCC(=O)NCC(=O)N[C@@H](CO)C(=O)N[C@H](CCCCN)C(=O)N[C@H](CCCCN)C(=O)N[C@H](CCCCN)C(=O)N[C@@H](CCCCNC(=O)CCCC[C@@H]1SC[C@@H]2NC(=O)N[C@@H]21)C(N)=O)C(C)C [W10P, Ac-YEQDPWGVKPWYGGGSkkk] (Ac-YEQDPWGVKPWYGGGS[dK][dK][dK]K(Biotin)-NH2)
serum stability at the W10/W11 endolytic cleavage site ([1]; mouse serum): did not confer protection at the W10/W11 site | binding activity to M2 macrophages (in words) [2]: abrogated the binding activity

— patent publication US20170246311A1, “PEPTIDES FOR BINDING ALTERNATIVELY ACTIVATED MACROPHAGES” (University of Washington, priority 2016, published 2017)
